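How tested: cells in 96-well plates exposed to compound for 48 hours at five concentrations. GI50 marks 50% less growth. Definition used: TGI = concentration required for complete inhibition of growth.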
Legend:
Experiment in all cases: DTP human tumour cell line panel, 48 h
786-0 renal = test system: 786-0 renal
MDA-MB-435 = test system: MDA-MB-435
NCI-H23 lung = test system: NCI-H23 lung
OVCAR-5 ovarian = test system: OVCAR-5 ovarian
RXF 393 renal = test system: RXF 393 renal
SF-268 CNS = test system: SF-268 CNS
SK-MEL-5 melanoma = test system: SK-MEL-5 melanoma
UACC-257 melanoma = test system: UACC-257 melanoma

`CNCC(=O)NC(CO)C(=O)NC(CO)C(=O)NC1C(C(N)=O)OC(n2ccc(N)nc2=O)C(O)C1O` (stereo unspecified) was tested, and the GI50 (786-0 renal) was 12.5 µg/mL, the TGI (786-0 renal) was greater than 50 µg/mL and the GI50 (MDA-MB-435) was 41.9 µg/mL. The TGI (MDA-MB-435) was greater than 50 µg/mL, the GI50 (NCI-H23 lung) was 8.49 µg/mL and the TGI (NCI-H23 lung) was 48.8 µg/mL. For the same compound, the GI50 (OVCAR-5 ovarian) was 9.43 µg/mL, the TGI (OVCAR-5 ovarian) was greater than 50 µg/mL and the GI50 (RXF 393 renal) was 6.4 µg/mL. It also gave a TGI (RXF 393 renal) of 35.4 µg/mL, a GI50 (SF-268 CNS) of 1.95 µg/mL and a TGI (SF-268 CNS) of 15.6 µg/mL. It also gave a GI50 (SK-MEL-5 melanoma) of 16.1 µg/mL, a TGI (SK-MEL-5 melanoma) greater than 50 µg/mL and a GI50 (UACC-257 melanoma) of 13.7 µg/mL. For the same compound, the TGI (UACC-257 melanoma) was greater than 50 µg/mL.
With `Cn1c2c(c3ccccc3c1=O)C(=O)c1ccccc1-2` the TGI (786-0 renal) was greater than 100 µM, the TGI (MDA-MB-435) was greater than 100 µM and the TGI (NCI-H23 lung) was greater than 100 µM. It also gave a TGI (OVCAR-5 ovarian) greater than 100 µM, a TGI (SF-268 CNS) greater than 100 µM and a TGI (SK-MEL-5 melanoma) greater than 100 µM. It also gave a TGI (UACC-257 melanoma) greater than 100 µM.
Work on `OC(CN1CCCC2CCCCC21)c1cc2ccccc2c2ccccc12` (stereo unspecified) yielded a GI50 (786-0 renal) of 1.84 µM, a TGI (786-0 renal) of 3.6 µM and a GI50 (MDA-MB-435) of 2.02 µM. The TGI (MDA-MB-435) was 5.06 µM, the GI50 (NCI-H23 lung) was 2.14 µM and the TGI (NCI-H23 lung) was 7.14 µM. The GI50 (OVCAR-5 ovarian) was 1.95 µM, the TGI (OVCAR-5 ovarian) was 5.64 µM and the GI50 (RXF 393 renal) was 1.71 µM. It also gave a TGI (RXF 393 renal) of 3.59 µM, a GI50 (SF-268 CNS) of 3.64 µM and a TGI (SF-268 CNS) of 13.7 µM. The GI50 (SK-MEL-5 melanoma) was 1.67 µM, the TGI (SK-MEL-5 melanoma) was 3.05 µM and the GI50 (UACC-257 melanoma) was 1.96 µM. The TGI (UACC-257 melanoma) was 4.73 µM.
`COc1cccc(N2CCN(c3ncnc4cc[nH]c34)CC2)c1` gave a GI50 (786-0 renal) of 29.1 µM, a TGI (786-0 renal) greater than 100 µM and a GI50 (MDA-MB-435) of 2.73 µM. The TGI (MDA-MB-435) was 19 µM, the GI50 (NCI-H23 lung) was 3.47 µM and the TGI (NCI-H23 lung) was greater than 100 µM. It also gave a GI50 (OVCAR-5 ovarian) of 43.6 µM, a TGI (OVCAR-5 ovarian) greater than 100 µM and a GI50 (RXF 393 renal) of 33.6 µM. It also gave a TGI (RXF 393 renal) greater than 100 µM, a GI50 (SF-268 CNS) of 14.9 µM and a TGI (SF-268 CNS) greater than 100 µM. It also gave a GI50 (SK-MEL-5 melanoma) of 0.394 µM, a TGI (SK-MEL-5 melanoma) of 2.77 µM and a GI50 (UACC-257 melanoma) of 2.32 µM. The TGI (UACC-257 melanoma) was 29.2 µM.
For `NC(Cc1cccnn1)C(=O)O` (stereo unspecified), the TGI (786-0 renal) was greater than 100 µM, the TGI (MDA-MB-435) was greater than 100 µM and the TGI (NCI-H23 lung) was greater than 100 µM. It also gave a TGI (OVCAR-5 ovarian) greater than 100 µM, a TGI (RXF 393 renal) greater than 100 µM and a TGI (SF-268 CNS) greater than 100 µM. The TGI (SK-MEL-5 melanoma) was greater than 100 µM and the TGI (UACC-257 melanoma) was greater than 100 µM.
`O=C1C(Cl)=C(Nc2cc(Cl)ccc2O)C(=O)N1Cc1ccccc1` gave a GI50 (786-0 renal) of 18.2 µM, a TGI (786-0 renal) of 33 µM and a GI50 (MDA-MB-435) of 19 µM. The TGI (MDA-MB-435) was 34.9 µM, the GI50 (NCI-H23 lung) was 16.6 µM and the TGI (NCI-H23 lung) was 31.5 µM. It also gave a GI50 (OVCAR-5 ovarian) of 18.8 µM, a TGI (OVCAR-5 ovarian) of 35.4 µM and a GI50 (RXF 393 renal) of 14.1 µM. For the same compound, the TGI (RXF 393 renal) was 30.3 µM, the GI50 (SF-268 CNS) was 17.5 µM and the TGI (SF-268 CNS) was 35 µM. It also gave a GI50 (SK-MEL-5 melanoma) of 16.1 µM, a TGI (SK-MEL-5 melanoma) of 29.9 µM and a GI50 (UACC-257 melanoma) of 14.1 µM. The TGI (UACC-257 melanoma) was 28.3 µM.
`C[C@H]1COCCN1c1nc(-c2cnc(N)cc2C(F)F)nc(N2CCOCC2)n1` was tested, and the GI50 (786-0 renal) was 0.181 µM, the TGI (786-0 renal) was 5.15 µM and the GI50 (MDA-MB-435) was 0.182 µM. It also gave a TGI (MDA-MB-435) of 5.27 µM, a GI50 (NCI-H23 lung) of 0.274 µM and a TGI (NCI-H23 lung) greater than 100 µM. The GI50 (OVCAR-5 ovarian) was 0.188 µM, the TGI (OVCAR-5 ovarian) was greater than 100 µM and the GI50 (RXF 393 renal) was 0.129 µM. It also gave a TGI (RXF 393 renal) of 0.617 µM, a GI50 (SF-268 CNS) of 0.265 µM and a TGI (SF-268 CNS) greater than 100 µM. For the same compound, the GI50 (SK-MEL-5 melanoma) was 0.15 µM, the TGI (SK-MEL-5 melanoma) was 0.651 µM and the GI50 (UACC-257 melanoma) was 0.166 µM. For the same compound, the TGI (UACC-257 melanoma) was 1.58 µM.
Work on `CC1=CC(C)(C)Nc2ccc(Cc3ccc4c(c3)C(C)=CC(C)(C)N4)cc21` yielded a GI50 (786-0 renal) of 26 µM, a TGI (786-0 renal) greater than 100 µM and a GI50 (MDA-MB-435) of 16.5 µM. The TGI (MDA-MB-435) was greater than 100 µM, the GI50 (NCI-H23 lung) was 4.54 µM and the TGI (NCI-H23 lung) was greater than 100 µM. The GI50 (OVCAR-5 ovarian) was 52.3 µM, the TGI (OVCAR-5 ovarian) was greater than 100 µM and the GI50 (RXF 393 renal) was 22 µM. It also gave a TGI (RXF 393 renal) of 88.7 µM, a GI50 (SF-268 CNS) of 16.6 µM and a TGI (SF-268 CNS) greater than 100 µM. The GI50 (SK-MEL-5 melanoma) was 9.05 µM, the TGI (SK-MEL-5 melanoma) was 22 µM and the GI50 (UACC-257 melanoma) was 7.06 µM. For the same compound, the TGI (UACC-257 melanoma) was 72.1 µM.
